We go through five molecules from patent publication US20210254069A1, “COMBINATION THERAPIES COMPRISING C/EBP ALPHA SARNA” (MiNA THERAPEUTICS LIMITED, priority 2018, published 2021).

In the oligonucleotide strings, read from the 5' end, every base follows the letter of its sugar. An asterisk marks phosphorothioate; unmarked linkages are phosphodiester. Other units and linkages are bracketed, terminal groups are in braces. A string of capitals states the bases alone. [invAb] = inverted abasic unit; d = 2'-deoxy (DNA); m = 2'-O-methyl; r = 2'-OH (RNA)

Data set [1] deals with HCC rat DEN model. Briefly: DEN rat HCC model, tumour volume. The format is in vivo. The conditions noted are these: DEN rats; treated 3x/week for 2 weeks (MTL-CEBPA i.v.; sorafenib P.O. 10 mg/kg); sacrifice day 15; PBS 644.7. On the procedure: (§1) Male Wistar rats (150-180 g) at 7 weeks of age were obtained from the Animal Center of National Taiwan University. The rats were housed in standard conditions, and all the experiments were conducted in accordance with the “Guide for the Care and Use of Laboratory Animals” prepared by the Institutional Animal Care and Use Committee of National Taiwan University. The rats were given DEN solution daily (Sigma, St Louis, Mo.) as the sole source of drinking water for 6 weeks, followed by 3 weeks of regular water. The DEN solution feeding started with 100 ppm in the first week. The average bodyweight (BW) of the animals was measured once a week per group of five rats, and the concentration of DEN in their drinking water was adjusted in proportion to the BW each week relative to that of the first week. […]
On 15th day after treatment, the animals were sacrificed and tumour size and tumour/liver weight were measured. The body, liver, lung, and spleen were weighed, and the aspects of all organs were recorded. After the animals were sacrificed, all liver lobes were promptly removed and weighed, and the diameters of all of the macroscopically visible nodules on the liver surface and in the 5-mm sliced sections were measured. Tumour burden was determined in terms of two criteria: the ratio of liver weight/BW, and the total volume of all the tumour nodules with diameter >3 mm. […]

The test system of data set [2] is alpha-fetoprotein (AFP). Briefly: DEN rat HCC model, serum alpha-fetoprotein. Type of data set: in vivo. The settings on record: DEN rats, 2 weeks dosing, PBS 27. How it is done:
as §1
The serum levels of ALT, AST and total bilirubin were measured with VITROS 5.1 FS Chemistry Systems (Ortho-Clinical Diagnostics, Inc.). The serum level of rat alpha-fetoprotein was evaluated with anti-Rat AFP ELISA Kit (USCN life company/China), following the instructions of the manufacturer.
Serum levels of alpha-fetoprotein (AFP) were measured before treatment and compared to measurement after treatment and represented as ‘AFP change’ (mg/dl). Serum AFP change was measured in each group. […]

For data set [3], the system named is Nexavar resistant BNL tumour. Briefly: Sorafenib-resistant BNL subcutaneous tumour model. The conditions noted are these: after 3 weeks; MTL-CEBPA 4.2 mg/kg IV d1, d3, d5; anti-PD1 250 ug IP d1, d3, d5; Sorafenib 30 mg/kg PO daily. The format is in vivo, mouse. On the procedure: Cell Culture: The mouse hepatocellular carcinoma cell line BNL was maintained in Dulbecco's modified Eagle's medium (DMEM, Gibco by Invitrogen) with […] G418 (Merck, Germany), 1% antibiotic antimycotic (Gibco by Invitrogen) and 10% fetal bovine serum (Gibco by Invitrogen) and cultured at 37° C. in a humidified atmosphere.
Tumour Inoculation and Experimental design: Each BALB/c mice were injected subcutaneously (s.c.) on the flank with 3×10^5 BNL-Luc cells in 0.05 ml of PBS. After inoculation for 3 weeks, Nexavar® (Sorafenib) was orally administered every day for two weeks (30 mg/kg/day).
The selected animals were randomized into the 7 treatment groups (Table 18).
60 mice were injected with 3×10^5 of BNL-Luc cells in […] mixture of PBS. After 3 weeks, the mice were dosed with 30 mg/kg of Sorafenib p.o. every day for 2 weeks. […] The 7 groups included PBS as Control group [PBS]; MTL-CEBPA [C], ([…], I.V., d1, d3, d5); anti-PD1 antibody [P] (250 ug, I.P., d1, d3, d5); Nexavar® (Sorafenib) [N] (30 mg/kg, P.O. daily); MTL-CEBPA+anti-PD1 [C+P]; MTL-CEBPA+Nexavar® (Sorafenib) [C+N] and MTL-CEBPA+anti-PD1+Nexavar® (Sorafenib) [C+P+N].

For data set [4], the system named is HCC. The settings on record: single agent, published Phase III; cited from earlier work.
For data set [5], the system named is advanced HCC. The conditions noted are these: cited from earlier work.
For data set [6], the system named is CEBPA-mRNA. Briefly: qRT-PCR of CEBPA mRNA, CEBPA-51 with FGFR4 antibody. The format is cell-based. The conditions noted are these: Hep3B; oligo 10 nM, anti-human FGFR4 antibody 30 ug/ml where applicable; 72 hours post-seeding; Mock, no antibody = 1.00. How it is done:
RNA was isolated from cultured cells using the RNeasy Mini Kit (QIAGEN). RNA was quantitated using a Qiaxpert (Qiagen), and reverse transcribed using the Quantitect Reverse Transcription Kit (QIAGEN). Relative expression levels were determined by qPCR using Quantifast SYBR Green Master Mix (QIAGEN) on a Quantstudio 5 (Qiagen). The following Quantitect Primer Assays (QIAGEN) were used: CEBPA_1_SG, FGFR4_1_SG and GAPDH_1_SG. Relative expression was determined the DDCt method normalized to GAPDH expression.
(§2) In another study, Hep3B cells were seeded at 1.0×10^5 cells/well in a 24 well plate in the presence of 30 ug/ml anti-human FGFR4 therapeutic antibody (XPA.48.056; Creative Biolabs) as applicable. Cells were transfected with either 10 nM CEBPA-51 saRNA, 10 nM Control oligo (NC) or transfection agent alone (Mock) at seeding and this was repeated 24 hours post- seeding and culture medium changed at 48 hours. FGFR antibody treatment was maintained throughout the experiment. Cells were harvested for RNA collection 72 hours post-seeding qRT-PCR analysis.
Background: Quantitative PCR measures a nucleic acid by following its amplification.

Data set [7] deals with Hep3B cells. The data set is described as follows: WST1 growth assay, CEBPA-51 with FGFR4 antibody. Type of data set: cell-based. The settings on record: oligo 10 nM, FGFR4 antibody where applicable, Mock, no antibody = 1.00. On the procedure: (§3) HepB3 cells were seeded at 1×10^4 cells/well in a 96 well plate, reverse transfected with oligo at seeding and forward transfected 24 hours later. WST cell viability assay was performed as according to the manufactures' instructions (with 24 hr WST incubation). The WST alone signal has been subtracted from the cell-WST signal.
as §2
Treatment of Hep3B cells with FGFR4 antibody reduced cell viability. Combination treatment of both FGFR4 antibody and CEPBA-51 further reduced cell viability as monitored by WST1 growth assay (Table 9A, 96 hours; Table 9B, 120 hours).
(Tetrazolium assays rely on reduction of a dye to a coloured formazan, in cell work by metabolically active cells.)

Data set [8] relates to Hep3B cells. The data set is described as follows: WST-1 growth assay, siFGFR4 / CEBPA-51. The conditions noted are these: 20 nM, Mock = 1.00. The format is cell-based. How it is done: HepB3 cells were grown in DMEM supplemented with 10% fetal bovine serum (FBS), 2 mM L-glutamine, and penicillin/streptomycin in a 5% CO2 incubator. Transfections were performed using 2 μL of Lipofectamine 2000 (Life Technologies) per well in 24 well plate.
as §3

Data set [9] has as its system HCC. The conditions noted are these: CHECKMATE-040 subgroup, cited from earlier work.

Turning to `CNC(=O)c1cc(Oc2ccc(NC(=O)Nc3ccc(Cl)c(C(F)(F)F)c3)cc2)ccn1` [Sorafenib], the “Tumor volume, Mean” value in data set [1] amounted to 299.5 mm^3. Besides, the “AFP change (pre-treatment vs post-treatment), Mean” value in [2] is -36.83 mg/dL. Also, in [3], the “reduction in tumour volume” value was “no effect” and the “reduction in tumour weight” value was “no effect”. Besides, in data set [4], the “complete responses, share of patients” value is on record as 0% and the “partial responses, share of patients” value was 2%. For the same molecule, the “decrease in the risk of death” value in data set [5] (patients with advanced HCC) is on record as 31%. Besides, the median survival in [5] (patients with advanced disease, placebo 7.9 months) was 10.7 months.

For `COc1cc2nccc(Oc3ccc(NC(=O)NC4CC4)c(Cl)c3)c2cc1C(N)=O` [lenvatinib], the “partial responses, share of patients” value in [4] is 24%.

The molecule “CEBPA-51: saRNA duplex that upregulates C/EBPa; antisense SEQ ID No. 1, sense SEQ ID No. 2 (sense GCGGUCAUUGUCACUGGUCUU; antisense GACCAGUGACAAUGACCGCUU; sense: sugars from the 5' end mmrmrrrrrmrrrmrrrrrmm, [invAb] at 5' end, backbone not given here; antisense: sugars from the 5' end r19 m2, backbone not given here; further chemistry not fully specified)” gave a CEBPA-mRNA relative expression in data set [6] of 1.31. Also, the results for the Normalized cell viability in data set [7] (96 hours after treatment) and in data set [7] (120 hours after treatment) were 0.32 and 0.25, respectively.

As to “NC: Negative control oligonucleotide siFLUC, SEQ ID NO: 6 and 7 (chain 1 rCmUmUrAmCrGmCmUrGrArGmUrAmCmUmUmCrGrAdT*dT; chain 2 rUrCrGrArArGmUrArCrUmCrArGrCrGmUrArArGdT*dT)”, the Normalized cell viability was 0.62 in [8] (96 hours after treatment), 0.70 in data set [8] (120 hours after treatment), 0.48 in data set [7] (96 hours after treatment) and 0.59 in data set [7] (120 hours after treatment). The CEBPA-mRNA relative expression in [6] amounted to 0.89.

With Nivolumab: PD-1 inhibitor, Human IgG, in data set [9], the “responders with responses lasting 6 months or longer” value is 91% and the “responders with responses lasting 12 months or longer” value was 55%. Further, the overall response rate in data set [9] (HCC patients, 95% CI: 9.2, 20.8) is reported as 14.3%. For the same molecule, in [9] (HCC patients), the complete responses was 3 and the partial responses is on record as 19.
